# Source: patent US4769384A, “Benzimidazole derivatives” (Nippon Shinyaku Co. Ltd., priority 1985, dated 1988)
# How the values were obtained:
# Format in all cases: in vivo
# [1] = Acute toxicity, oral, rats; settings: p.o., two weeks
# Procedure: (§1) Method: Male mice of six weeks of age or male rats of six weeks of age were fasted for 24 hours and subjected to the test.
# (§2) The compound to be tested was suspended in physiological saline solution containing 0.5% of methylcellulose. The suspension was administered orally.
# [2] = Anti-ulcer action: water-immersion stress ulcer in rats, oral (ulcer index); settings: per os
# Procedure: Biological test method: Male rats of seven weeks of age were fasted for 24 hours and subjected to the test. The compound to be tested was suspended in a physiological saline solution containing 0.5% methylcellulose therein. 10 ml/kg of it was administered orally. The animals were immediately placed in a stress cage and immersed in a water bath of 23° C. to the depth of xiphoid. After 17 hours, they were sacrificed by cervical dislocation. The stomach was isolated therefrom. 7 ml of 2% formaline solution was introduced into the stomach for fixation. Then the stomach was cut along a greater curvature. The length of ulcer produced in fundus was measured under a microscope and the total ulcer length (in mm) was defined as an ulcer index per rat. Significance between mean ulcer indices was verified by the Student t-test.
# [3] = Acute toxicity, oral, mice; settings: p.o., two weeks
# Procedure: as §1, §2
# [4] = 20 mg/kg (# dose of salt as the corresponding base)
# [5] = 40 mg/kg (# dose of salt as the corresponding base)
# [6] = 80 mg/kg (# dose of salt as the corresponding base)
# [7] = 5 mg/kg (# dose of salt as the corresponding base), 5 mg/kg
# [8] = 10 mg/kg (# dose of salt as the corresponding base), 10 mg/kg
# [9] = 20 mg/kg (# dose of salt as the corresponding base), 20 mg/kg
# [10] = 5 mg/kg (# dose of salt as the corresponding base)
# [11] = 10 mg/kg (# dose of salt as the corresponding base)
compound,measurement,setting,value
"COC(=O)c1cccc2nc(/C=C/c3ccc(OC)cc3)[nH]c12 [Example 14, Methyl (E)-2-(4-methoxystyryl)benzimidazole-4-carboxylate]",Death Ratio,[1]; 2000 mg/kg,0/4
same,Antiulcer Action (inhibition %) after 17 hours,[2]; 20 mg/kg,26%
same,Antiulcer Action (inhibition %) after 17 hours,[2]; 40 mg/kg,81%
same,Antiulcer Action (inhibition %) after 17 hours,[2]; 80 mg/kg,96%
"C#CCOc1ccc(/C=C/c2nc3c(C(=O)OC)cccc3[nH]2)cc1 [Example 30, Methyl (E)-2-[4-(2-propynyloxy)styryl]benzimidazole-4-carboxylate phosphate]",Antiulcer Action (inhibition %) after 17 hours,[2]; [4],44%
same,Antiulcer Action (inhibition %) after 17 hours,[2]; [5],55%
same,Antiulcer Action (inhibition %) after 17 hours,[2]; [6],82%
"COC(=O)c1cccc2nc(/C=C/c3ccc(OC)c(OC)c3)[nH]c12 [Example 65, Methyl (E)-2-(3,4-dimethoxystyryl)benzimidazole-4-carboxylate d-10-camphorsulfonate]",Death Ratio,[3]; 3440 mg/kg,2/5
same,Antiulcer Action (inhibition %) after 17 hours,[2]; [7],12%
same,Antiulcer Action (inhibition %) after 17 hours,[2]; [8],69%
same,Antiulcer Action (inhibition %) after 17 hours,[2]; [9],89%
"CN/C(=N/CCSCc1nc[nH]c1C)NC#N [Cimetidine, reference compound]",Antiulcer Action (inhibition %) after 17 hours,[2]; 200 mg/kg,66%
"COC(=O)c1cccc2nc(/C=C/c3ccc(OC)c(OC)c3)[nH]c12.O=S(=O)(O)c1ccccc1 [Example 86, Methyl (E)-2-(3,4-dimethoxystyryl)benzimidazole-4-carboxylate benzenesulfonate]",Death Ratio,[1]; 2280 mg/kg,0/3
same,Antiulcer Action (inhibition %) after 17 hours,[2]; [10],4%
same,Antiulcer Action (inhibition %) after 17 hours,[2]; [11],35%
same,Antiulcer Action (inhibition %) after 17 hours,[2]; [4],98%
"CCOc1ccc(/C=C/c2nc3cccc(C(=O)OC)c3[nH]2)cc1OC.O=P(O)(O)O [Example 53, Methyl (E)-2-(4-ethoxy-3-methoxystyryl)benzimidazole-4-carboxylate phosphate]",Antiulcer Action (inhibition %) after 17 hours,[2]; [4],81%
same,Antiulcer Action (inhibition %) after 17 hours,[2]; [5],99%
same,Antiulcer Action (inhibition %) after 17 hours,[2]; [6],99%
"COC(=O)c1cccc2nc(/C=C/c3ccc(OC)cc3)[nH]c12.O=P(O)(O)O [Example 54, Methyl (E)-2-(4-methoxystyryl)benzimidazole-4-carboxylate phosphate]",Death Ratio,[1]; 2636 mg/kg,0/4
same,Antiulcer Action (inhibition %) after 17 hours,[2]; [4],55%
same,Antiulcer Action (inhibition %) after 17 hours,[2]; [5],86%
same,Antiulcer Action (inhibition %) after 17 hours,[2]; [6],98%
"COC(=O)c1cccc2nc(/C=C/c3ccc(OC)c(OC)c3)[nH]c12.O=S(=O)(O)O [Example 67, Methyl (E)-2-(3,4-dimethoxystyryl)benzimidazole-4-carboxylate sulfate]",Antiulcer Action (inhibition %) after 17 hours,[2]; [10],48%
same,Antiulcer Action (inhibition %) after 17 hours,[2]; [11],72%
"COC(=O)c1cccc2nc(/C=C/c3ccc(OC)c(OC)c3)[nH]c12 [Example 1, Methyl (E)-2-(3,4-dimethoxystyryl)benzimidazole-4-carboxylate]",Death Ratio,[1]; 2000 mg/kg,1/4
same,Death Ratio,[3]; 2000 mg/kg,0/5
same,Antiulcer Action (inhibition %) after 17 hours,[2]; 10 mg/kg,40%
same,Antiulcer Action (inhibition %) after 17 hours,[2]; 20 mg/kg,78%
same,Antiulcer Action (inhibition %) after 17 hours,[2]; 40 mg/kg,97%
"COC(=O)c1cccc2[nH]c(/C=C/c3ccc(OC)c(OC)c3)nc12 [Example 66, Methyl (E)-2-(3,4-dimethoxystyryl)benzimidazole-4-carboxylate 1-naphthalenesulfonate]",Antiulcer Action (inhibition %) after 17 hours,[2]; [7],7%
same,Antiulcer Action (inhibition %) after 17 hours,[2]; [8],63%
same,Antiulcer Action (inhibition %) after 17 hours,[2]; [9],87%
"COC(=O)c1cccc2nc(/C=C/c3ccc(OC)c(OC)c3)[nH]c12.Cl [Example 70, Methyl (E)-2-(3,4-dimethoxystyryl)benzimidazole-4-carboxylate hydrochloride]",Death Ratio,[3]; 2340 mg/kg,1/5
same,Antiulcer Action (inhibition %) after 17 hours,[2]; [10],3%
same,Antiulcer Action (inhibition %) after 17 hours,[2]; [11],72%
same,Antiulcer Action (inhibition %) after 17 hours,[2]; [4],80%
"Br.COC(=O)c1cccc2nc(/C=C/c3ccc(OC)c(OC)c3)[nH]c12 [Example 69, Methyl (E)-2-(3,4-dimethoxystyryl)benzimidazole-4-carboxylate hydrobromide]",Death Ratio,[3]; 2560 mg/kg,2/5
same,Antiulcer Action (inhibition %) after 17 hours,[2]; [10],38%
same,Antiulcer Action (inhibition %) after 17 hours,[2]; [11],82%
"COC(=O)c1cccc2nc(/C=C/c3ccc(OC)c(OC)c3)[nH]c12 [1 (phosphate), Methyl (E)-2-(3,4-dimethoxystyryl)benzimidazole-4-carboxylate]",Death Ratio,[1]; 2580 mg/kg,0/4
same,Death Ratio,[3]; 2580 mg/kg,0/3
same,Antiulcer Action (inhibition %) after 17 hours,[2]; [11],66%
same,Antiulcer Action (inhibition %) after 17 hours,[2]; [4],92%
